Assay results as given in patent publication US20120196918A1, “PREVENTING ISLET INFLAMMATION AND DYSFUNCTION AND MAINTAINING PROPER GLUCOSE LEVELS BY CONTROLLING eIF5A AND ITS HYPUSINATION” (priority 2009, published 2012).

How the values were obtained:
[1] = tested on: STZ-treated C57BL/6J mice; assay: Multiple low-dose streptozotocin (STZ) diabetes model in C57BL/6J mice; type: in vivo, mouse
Description: (§1) To test the role of eIF5A in cytokine-mediated islet dysfunction, efforts were made to identify a mouse model of islet inflammation. The multiple low dose streptozotocin (STZ) model, in which mice are subjected to five daily intraperitoneal doses (at 55 mg/kg body weight) of STZ, is considered to provoke local islet inflammation and cytokine release, in part through the recruitment of CD11c+ dendritic cells that release pro-inflammatory cytokines in the area of STZ-induced cellular destruction (27 and 28).
C57BL/6J mice were injected intraperitoneally with either stabilized siRNA against eIF5A (si-eIF5A) or control siRNA (si-Control) daily for three days, then subjected to the multiple low-dose STZ protocol (see schematic in FIG. 1a). […] The effect of administering si-eIF5A on islet viability following STZ treatment was determined by performing immunohistochemical analysis of the pancreata of mice. […] To quantify the differences in islet mass between STZ-treated and untreated animals, morphometry of insulin-stained pancreatic sections was performed.
Based on the observed data, if hypusination of eIF5A by DHS is required for cytokine responsiveness in islets, then inhibition of DHS in vivo should protect against low dose STZ diabetes. To test this, C57BL/6J mice were treated with GC7 or vehicle and then subjected to low dose STZ injections. GC7 was delivered in one of two different ways: either by daily bolus intraperitoneal injections (4 mg/kg/day) or by continuous subcutaneous delivery (40 μg/kg/h) using implanted osmotic pumps. A protocol similar to that shown in FIG. 1A was employed in these studies, with GC7 injections or pump implants starting 3 days prior to STZ injections.
Small interfering RNA (siRNA) studies: Stabilized siRNAs for intraperitoneal injections were custom synthesized by Dharmacon using the siSTABLE® modification. Groups of 10 week-old C57BL/6J male mice (from Jackson Labs) received daily intraperitoneal injections of 1.6 mg/kg siRNA prepared in 0.9% saline or vehicle alone (0.9% saline) for 3 days. For in vitro studies, islets from each group of injected mice were harvested on the fourth day and pooled prior to analysis. Injections with each siRNA were performed on at least 3 different occasions. siRNA sequences were as follows: siControl, 5′-[…]-3′; si-eIF5A, 5′-[…]-3′. For siRNA studies in the rat β cell-derived line INS-1 (832/13), cells were transfected with a SMART Pool® siRNA against rat eIF5A1 (Dharmacon, #L-083855-01) or non-targeting control siRNA #1 (Dharmacon) using DharmaFECT® transfection reagent (Dharmacon).
Immunostaining and morphometric assessment of β cell mass: Immunostaining of pancreatic sections proceeded as described previously (72). For assessment of islet cell death in pancreatic sections, the technique of terminal deoxynucleotidyl transferase dUTP nick end labeling (TUNEL) was performed using biotinylated 16-dUTP (Roche) and Texas Red Neutravidin (Invitrogen). Digital images of each islet at 40× magnification were acquired using an Axio-Observer D1 microscope (Zeiss) inverted fluorescent microscope equipped with a high-resolution color camera. TUNEL-positive/insulin-positive nuclei were counted manually by an observer blinded to sample identity, and data were re-coded as the average number of TUNEL-positive nuclei per islet. β cell mass was calculated as described previously (73), but with some modifications. Briefly, pancreata from 3 mice per treatment group were rapidly dissected and weighed, fixed in 4% paraformaldehyde, paraffin-embedded, and longitudinally sectioned. Three sections/pancreas (approx. 75 μm apart) were subsequently immunostained for insulin and counterstained with hematoxylin as described (74), and digital images of each section at 10× magnification were acquired on an Axio-Observer Z1 microscope (Zeiss) fitted with an AxioCam high resolution color camera. […]

iNOS [2] = conditions: cited from earlier work
eIF5A = eIF5A nuclear-to-cytoplasmic translocation in INS-1 cells (immunofluorescence); type: cell-based, rat; conditions: pretreatment, then cytokines 4 h
Description: Given the striking retention of Nos2 transcripts in the absence of eIF5A-Hyp, it was of interest to determine whether the intracellular distribution of eIF5A accounts for its effect on Nos2 nucleo-cytoplasmic shuttling. Immunofluorescence of eIF5A in fixed INS-1 cells, were thus performed. […] Upon treatment of cells with cytokines, there was a shift in the eIF5A distribution pattern from the nucleus to the cytoplasm.
Cytokine and inhibitor incubation studies: For cytokine incubation assays, a 1000× cocktail of cytokines containing 5 μg/ml IL1β, 10 μg/ml TNFα, and 100 μg/ml IFNγ (all prepared in 0.1% BSA in Tris-buffered saline) was applied at 1× final concentration to groups of 50 islets or 1×10^6 INS-1 (832/13) cells for a total of 4 h at 37° C. For GC7 incubation studies, GC7 was prepared at a stock concentration of 125 mM in 10 mM acetic acid and applied to cultures of 50 islets or 1×10^6 INS-1 cells to obtain the final concentrations indicted in the figures. […]
Immunofluorescence: Immunofluorescence of INS-1 cells proceeded essentially as described previously (71), using primary antibodies to eIF5A1 and secondary anti-mouse Alexa-488-conjugated antibody (Invitrogen), or by direct visualization of GFP fusion proteins at 488 nm. […] Quantitation of cytoplasic-to-nuclear ratios of eIF5A staining was performed using Axio-Vision Software, v. […]

Nos2 mRNA = assay: Nuclear export of Nos2 mRNA, subcellular fractionation of cytokine-treated INS-1 cells; type: cell-based, rat
Description: Subcellular fractionation studies: Nuclear and cytoplasmic fractions of 1×10^6 cytokine-treated INS-1 cells exposed to vehicle, leptomycin B (20 ng/ml), or GC7 (100 μM) were prepared using the method of Dignam, et al. (76). Total RNA was isolated from nuclear and cytoplasmic fractions using the RNeasy® RNA isolation kit (Qiagen).
Quantitative RT-PCR: Five micrograms of total RNA from islets or INS-1 cells were reverse-transcribed as detailed previously (77). cDNA was subjected to quantitative PCR using SYBR Green-based technology and published primers for mouse Ins1/2 pre-mRNA (78) and QuantiTech® primers (Qiagen) for all other mouse genes. The Assay on Demand® kit (Applied Biosystems) was used to amplify rat genes in INS-1 cells and human genes in human islets. Thermal cycling was performed according to manufacturer's instructions, and the identity of each PCR product was verified by automated sequencing. All samples were corrected for total input RNA as quantitated by an Experion® (Bio-Rad) bioanalyzer. All data represent the average of triplicate determinations from at least 3 independent experiments.

iNOS [3] = assay: Cytokine-induced iNOS protein in INS-1 cells (immunoblot); type: cell-based, rat; conditions: increasing inhibitor concentrations overnight, cytokines 4 h
Description: eIF5A1 and eIF5A2 are the only proteins known to contain the unique amino acid hypusine at position 50. Hypusine is formed as a posttranslational modification of residue Lys50 in a reaction requiring spermidine and catalyzed by the sequential actions of the enzymes deoxyhypusine synthase (DHS) and deoxyhypusine hydroxylase (DOHH) (Chen, K Y, and Liu, A Y. Biochemistry and function of hypusine formation on eukaryotic initiation factor 5A. Biol Signals. 1997; 6(3):105-109). […] To further investigate the mechanism of eIF5A-regulated translation of Nos2, studies were performed following overnight incubation of cells with mimosine (an inhibitor of DOHH) and GC7 (an inhibitor of DHS). […] Similar data using GC7 were obtained in primary mouse islets (data not shown) and in human islets (FIGS. 5F and 5G).
Because GC7 is known to be inactivated by the action amine oxidases, which are abundant in serum, typical studies with GC7 in the literature have used aminoguanidine to inhibit amine oxidases (16). […] To rule out possible adverse effects of GC7 on cell viability, quantitative 2 color fluorescence analysis of live (calcein-AM-positive) and dead (ethidium homodimer-1-positive) cells were performed using fluorescence cytometry.
Cytokine and inhibitor incubation studies: For cytokine incubation assays, a 1000× cocktail of cytokines containing 5 μg/ml IL1β, 10 μg/ml TNFα, and 100 μg/ml IFNγ (all prepared in 0.1% BSA in Tris-buffered saline) was applied at 1× final concentration to groups of 50 islets or 1×10^6 INS-1 (832/13) cells for a total of 4 h at 37° C. For GC7 incubation studies, GC7 was prepared at a stock concentration of 125 mM in 10 mM acetic acid and applied to cultures of 50 islets or 1×10^6 INS-1 cells to obtain the final concentrations indicted in the figures. Where needed, GC7 was protected from amine oxidases in serum by addition of 1 mM aminoguanidine (Sigma). Cells were incubated with GC7 overnight (˜16 h) at 37° C. prior to analysis. Cells were exposed to Leptomycin B (Cayman Chemicals) for 3 hours; leptomycin B was prepared at a 1000× stock concentration of 20 μg/ml in ethanol.
Immunoblot and nitrite and iNOS assays: Whole cell extracts were resolved by electrophoresis on a 4-20% SDS-polyacrylamide gel, followed by immunoblot using anti-eIF5A1, anti-eIF5A2, anti-iNOS, anti-GFP, or anti-actin primary antibodies and fluorophore-labeled secondary antibodies. Immunoblots were visualized using the Li-Cor® Odyssey® system (Li-Cor Biosciences) and quantitated by scanning fluorometry using Odyssey Imaging v. […] Nitrite was quantitated by measuring nitric oxide-derived nitrite from INS-1 cell culture medium using the Griess reagent (Promega) according to the manufacturer's recommendations. iNOS activity was measured using a commercially available kit (Cayman).

[4] = tested on: STZ-treated NOD/Scid-(IL-2Rγ-null) mice; assay: Multiple low-dose STZ model in immune-deficient NOD/Scid-(IL-2Rγ-null) mice; type: in vivo, mouse; conditions: multiple low-dose STZ (data not shown for si-eIF5A)
Description: as §1
As noted, low-dose STZ-induced islet dysfunction involves at least two mechanisms: an inflammatory mechanism that is dependent upon cytokine release from immune cells and a direct toxic mechanism on the islet itself. […] Next, islets from 3 C57BL/6J mice per group 24 h after the initial STZ treatment were isolated and pooled and their iNOS content determined by immunoblot. […]
Studies in vivo: Daily STZ injections to groups of 10 week-old C57BL/6J and NOD/Scid-(IL-2Rγ-null) mice proceeded as described previously (30) at a dose of 55 mg STZ per kg mouse weight for 5 days. […] Serum was analyzed using a Luminex system (Millipore) and a mouse cytokine/chemokines Panel 1 mutliplex kit (Millipore).

Compound: 5′-AAAGUCGACCUUCAGUAAGGA-3′ (stabilizing modifications, further chemistry not given here) [si-Control, control siRNA, stabilized]
- average fasting blood glucose ([1]; siRNA 1.6 mg/kg i.p. daily for 3 days, then multiple low-dose STZ, day 7): 159 mg/dL
- reduction of β cell mass compared to non-STZ-treated controls ([1]; siRNA i.p., multiple low-dose STZ, morphometry of insulin-stained sections): 2.8 fold

Compound: N=C(N)NN [aminoguanidine]
- inhibition of iNOS catalytic activity (literature) (iNOS [2]): effective inhibitor of iNOS catalytic activity

Compound: CCC(=C/[C@H](C)C/C=C/C(C)=C/[C@@H](C)C(=O)[C@@H](C)[C@H](O)[C@@H](C)C/C(C)=C/C(=O)O)/C=C/[C@@H]1OC(=O)C=C[C@@H]1C [leptomycin B]
- cytokine-induced translocation of eIF5A (eIF5A): failed to induce the nuclear to cytoplasmic translocation of eIF5A
- Nos2 export blocked (Nos2 mRNA; cytokine-treated INS-1 cells): about 50%
- distribution of mRNAs between nuclear and cytoplasmic fractions (Nos2 mRNA; cytokine-treated, GC7 100 μM overnight or leptomycin B 20 ng/ml 3 h): relative retention of Nos2, Actb, and Nfkb1 (but not Gapdh) in the nuclear fraction

Compound: NC(Cn1ccc(=O)c(O)c1)C(=O)O (stereo not shown) [mimosine]
- iNOS protein after cytokines (iNOS [3]): dose-dependent attenuation

Compound: IL-1Ra: interleukin-1 receptor antagonist, the IL-1Ra anakinra
- protection against glucose intolerance [4]: did not protect against glucose intolerance
- glucose intolerance in IPGTT with IL-1Ra ([1]; concurrent IL-1Ra treatment, multiple low-dose STZ): attenuated glucose intolerance only in immune-competent mice
- serum IL-6 levels ([1]; concurrent treatment with STZ): dramatic drop in serum IL-6 levels
